Literature values, collected in patent US20240261254A1, “DIHYDROMYRICETIN NANOEMULSION FORMULATIONS AND METHODS FOR FORMING THEM” (Cheers Health, Inc., priority 2018, published 2024).

## O=C1c2c(O)cc(O)cc2O[C@H](c2cc(O)c(O)c(O)c2)[C@H]1O [DHM, dihydromyricetin]
Low solubility and permeability
  BCS class: BCS class IV
Reference [39]
  oral bioavailability: less than 5%
